Data set [1] addresses T1, folate receptor (Homo sapiens, UniProt P15328).
T1 construct: endogenous in cells; host or cells: KB tumor xenografts in male NMRI nu/nu mice
The experiment in a line: Ex vivo biodistribution study in mice bearing KB tumor xenografts, control vs folic acid blockade. On the set-up: species or system male NMRI nu/nu mice. The conditions noted are these: ~2 MBq radiotracer; blockade group 200 μg natural folic acid 10 min prior; sacrificed 105 min post injection; KB tumor. The protocol: (§1) γ-[^18F]fluoro-folic acid was applied in ex vivo biodistribution studies using male NMRI nu/nu mice bearing KB tumor xenografts. ˜2 MBq of the radiotracer were injected into each animal. In a blockade group, 200 μg natural folic acid was injected 10 min prior to the radiotracer. The animals were sacrificed 105 min post injection.

Data set [2] concerns folate receptor. The data set is described as above. On the set-up: species or system male NMRI nu/nu mice. The method, then: as §1
The target in data set [3] is T1, folate receptor. It is filed as in vivo, male NMRI nu/nu mice. Conditions: blockade 200 μg natural folic acid 10 min prior; scans 75-105 min post injection. The protocol: (§2) In vivo PET imaging using the γ-[^18F]fluoro-folic acid was performed in male NMRI nu/nu mice bearing KB tumor xenografts. Ca. 10 MBq of the radiotracer were injected into each animal. In the blockade group, 200 μg natural folic acid was injected 10 min prior to the radiotracer. The PET scans were acquired from 75 min to 105 min post injection.
(§3) This pattern is consistent with the physiological distribution of the folate receptor and points out the high specificity of γ-[^18F]fluoro-folic acid.
(§4) FIG. 3 show representative series of normalized horizontal slices of whole body PET scans using γ-[^18F]fluoro-folic acid under control and blockade conditions. Arrows with circles indicate the tumor site and arrows with squares indicate the kidneys.

Data set [4] concerns folate receptor. In kind it is in vivo, male NMRI nu/nu mice. The conditions noted are these: ca. 10 MBq; scans 75-105 min post injection. The method, then: as §2, §3, §4

T1 sequence (P15328 25-234 limits assumed): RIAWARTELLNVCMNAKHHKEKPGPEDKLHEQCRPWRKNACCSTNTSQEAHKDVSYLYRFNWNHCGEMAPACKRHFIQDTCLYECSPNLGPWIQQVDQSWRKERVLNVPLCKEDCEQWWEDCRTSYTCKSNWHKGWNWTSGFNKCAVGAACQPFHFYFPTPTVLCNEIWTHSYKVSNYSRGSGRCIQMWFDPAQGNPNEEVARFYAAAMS

Consider `Nc1nc2ncc(CNc3ccc(C(=O)N[C@@H](CC([18F])C(=O)O)C(=O)O)cc3)nc2c(=O)[nH]1` (stereo partly shown) [γ-[^18F]fluoro-folic acid, γ-[^18F]fluorofolic acid], for which, in data set [1], the “specific blockade of radiotracer uptake in folate receptor-positive KB tumors” value was found to be 90.0%. Further, in data set [2] (control group vs blockade group), the “uptake in folate receptor-positive tissues, such as tumor and kidney (FIG. 2)” value was “high specific uptake”. The “specific blockade of radiotracer uptake in the kidneys” value in data set [2] (~2 MBq radiotracer, blockade group 200 μg natural folic acid 10 min prior, sacrificed 105 min post injection, kidneys) worked out at 86.0%. For the same compound, in data set [3], the “specificity of uptake in PET” value was “highly specific and blocked by natural folic acid”. Also, in data set [4], the “uptake in liver cells (PET)” value is recorded as “radioactivity accumulation”, the “uptake in the kidney cortex (PET)” value is listed as “high specific uptake” and the “uptake in the kidney medulla (PET)” value was “no uptake”.

The record behind these values is patent publication US10961246B2, “18F-labelled folates as PET radiotracers” (MERCK & CIE, priority 2008, dated 2021).
